# In ChEMBL document CHEMBL4483862, “Open-source discovery of chemical leads for next-generation chemoprotective antimalarials” (2018):
# Tested on: Plasmodium berghei
# Assay: Luciferase/luciferin-expressing antifolate-resistant parasites were used to infect a culture of HepG2 cells that were pre-incubated with compounds. Infected hepatocytes emit light due to the luciferase reaction. Assay results are presented as the percent inhibition of light emission compared to control. […]
# Format: functional
# Settings: sporozoite; for IC90: read-out: LUCIFERASE INFECTION ASSAY - IC90
SMILES,IC90,further results
N#Cc1c(N2CCCC(O)C2)nc(N)c2c(N)nc3c(c12)CC(=O)N3C12CC3CC(CC(C3)C1)C2 (centres undefined),> 10 µM,"IC50 (HEPG2TOX_HILL_SLOPE 8.91, HEPG2TOX_R_SQUARED 0.422, PBLUC_HILL_SLOPE 4.43, PBLUC_R_SQUARED 0.134, read-out: LUCIFERASE INFECTION ASSAY - IC50): 6.8 µM"
N#Cc1c(N)nc(Sc2ccc(Cl)cc2)c(C#N)c1-c1ccccc1Cl,> 8.31 µM,"IC50 (HEPG2TOX_HILL_SLOPE 9.05, HEPG2TOX_R_SQUARED 0.0303, PBLUC_HILL_SLOPE 3.41, PBLUC_R_SQUARED 0.0674, read-out: LUCIFERASE INFECTION ASSAY - IC50): 7.69 µM"
CCOC(=O)c1sc(S(C)(=O)=O)c2c1CC(C)(C)CC2=O,> 9.99 µM,"IC50 (HEPG2TOX_HILL_SLOPE 8.99, HEPG2TOX_R_SQUARED 0.709, PBLUC_HILL_SLOPE 5.08, PBLUC_R_SQUARED 0.0136, read-out: LUCIFERASE INFECTION ASSAY - IC50): > 9.99 µM"
CN(C)CCNc1cc(-c2cccs2)nc2ccccc12,4.22 µM,"IC50 (HEPG2TOX_HILL_SLOPE 9.05, HEPG2TOX_R_SQUARED 0.795, PBLUC_HILL_SLOPE 12.9, PBLUC_R_SQUARED 0.598, read-out: LUCIFERASE INFECTION ASSAY - IC50): 3.56 µM"
CCNC(=O)COc1ccc(/C=C/C(=O)c2ccc(N3CCCCC3)cc2)cc1OC,> 10 µM,"IC50 (HEPG2TOX_HILL_SLOPE 9.05, HEPG2TOX_R_SQUARED 0.908, PBLUC_HILL_SLOPE 2.57, PBLUC_R_SQUARED 0.344, read-out: LUCIFERASE INFECTION ASSAY - IC50): 5.12 µM"
CC(C)c1ccc(C(=O)N2CCC(CCCC3CCN(C(=O)c4ccc(C(C)C)cc4)CC3)CC2)cc1,> 10 µM,"IC50 (HEPG2TOX_HILL_SLOPE 8.83, HEPG2TOX_R_SQUARED 0.537, read-out: LUCIFERASE INFECTION ASSAY - IC50): > 10 µM"
CN1C/C(=C/c2csnn2)C(=O)/C(=C/c2csnn2)C1,4.3 µM,"IC50 (HEPG2TOX_HILL_SLOPE 8.98, HEPG2TOX_R_SQUARED 0.932, PBLUC_HILL_SLOPE 14.4, PBLUC_R_SQUARED 0.582, read-out: LUCIFERASE INFECTION ASSAY - IC50): 3.69 µM"
Cc1ccc(-c2nc3c(s2)CN(C(=O)c2ccc4c(c2)OCO4)CC3)cc1,> 8.72 µM,"IC50 (HEPG2TOX_HILL_SLOPE 8.84, HEPG2TOX_R_SQUARED 0.538, PBLUC_HILL_SLOPE 2.18, PBLUC_R_SQUARED 0.0909, read-out: LUCIFERASE INFECTION ASSAY - IC50): 7.14 µM"
O=C1/C(=C/c2ccc(F)cc2)COC/C1=C\c1ccc(F)cc1,> 10.6 µM,"IC50 (HEPG2TOX_HILL_SLOPE 8.86, HEPG2TOX_R_SQUARED 0.951, read-out: LUCIFERASE INFECTION ASSAY - IC50): > 10.6 µM"
CCc1ccc(NC(=O)Cc2nc(-c3ccc4c(c3)CCCN4S(C)(=O)=O)cs2)cc1,> 10 µM,"IC50 (HEPG2TOX_HILL_SLOPE 9.08, HEPG2TOX_R_SQUARED 0.0527, PBLUC_HILL_SLOPE 1.74, PBLUC_R_SQUARED 0.25, read-out: LUCIFERASE INFECTION ASSAY - IC50): 5.76 µM"
Cc1ccccc1-c1noc(-c2cc(-c3cccs3)[nH]n2)n1,> 10 µM,"IC50 (HEPG2TOX_HILL_SLOPE 8.85, HEPG2TOX_R_SQUARED 0.0358, read-out: LUCIFERASE INFECTION ASSAY - IC50): > 10 µM"
O=C(/C=C/c1ccncc1)Nc1ccc(Oc2ccccc2)cc1,6.66 µM,"IC50 (HEPG2TOX_HILL_SLOPE 9.03, HEPG2TOX_R_SQUARED 0.239, PBLUC_HILL_SLOPE 3.67, PBLUC_R_SQUARED 0.501, read-out: LUCIFERASE INFECTION ASSAY - IC50): 3.66 µM"
C/C(=N\Nc1ccnc2cc(Cl)ccc12)c1ccc(-n2ccnc2)cc1,> 10 µM,"IC50 (HEPG2TOX_HILL_SLOPE 8.87, HEPG2TOX_R_SQUARED 0.252, read-out: LUCIFERASE INFECTION ASSAY - IC50): > 10 µM"
COc1ccc(-c2cnn3c(N)c(-c4cccc(Cl)c4)cnc23)cc1OC,> 8.67 µM,"IC50 (HEPG2TOX_HILL_SLOPE 8.92, HEPG2TOX_R_SQUARED 0.943, PBLUC_HILL_SLOPE 1.73, PBLUC_R_SQUARED 0.738, read-out: LUCIFERASE INFECTION ASSAY - IC50): 2.75 µM"
Cc1cccc(C(=O)Nc2nc3ccccn3c2C(=O)NC2CCCC2)c1,4.69 µM,"IC50 (HEPG2TOX_HILL_SLOPE 8.83, HEPG2TOX_R_SQUARED 0.45, PBLUC_HILL_SLOPE 2.41, PBLUC_R_SQUARED 0.415, read-out: LUCIFERASE INFECTION ASSAY - IC50): 1.88 µM"
CC(C)Oc1cccc(Nc2nccc3[nH]c(-c4ccccc4)cc23)c1,7.93 µM,"IC50 (HEPG2TOX_HILL_SLOPE 8.91, HEPG2TOX_R_SQUARED 0.686, PBLUC_HILL_SLOPE 1.92, PBLUC_R_SQUARED 0.493, read-out: LUCIFERASE INFECTION ASSAY - IC50): 2.53 µM"

SMILES,IC90,further results
Cc1ccc(CN2CCC3(CC2)C(=O)N(C(C)C)C(=O)N3CCc2ccccc2)o1,> 8.06 µM,"IC50 (HEPG2TOX_HILL_SLOPE 8.85, HEPG2TOX_R_SQUARED 0.516, read-out: LUCIFERASE INFECTION ASSAY - IC50): > 8.06 µM"
COc1ccc(-c2nonc2NC(=O)c2sc3cc(C)ccc3c2Cl)cc1,6.5 µM,"IC50 (HEPG2TOX_HILL_SLOPE 8.9, HEPG2TOX_R_SQUARED 0.644, PBLUC_HILL_SLOPE 6.34, PBLUC_R_SQUARED 0.0844, read-out: LUCIFERASE INFECTION ASSAY - IC50): 4.6 µM"
CC1(C(=O)N2CCN(c3ccc(C(F)(F)F)cn3)CC2)Cc2ccccc2C(=O)O1 (centres undefined),> 10 µM,"IC50 (HEPG2TOX_HILL_SLOPE 9.02, HEPG2TOX_R_SQUARED 0.896, PBLUC_HILL_SLOPE 11.4, 1.60, PBLUC_R_SQUARED 0.0115, 0.213, read-out: LUCIFERASE INFECTION ASSAY - IC50): 7.88 µM"
Cc1cc(=O)[nH]n(-c2ccccc2)c1=O,8.7 µM,"IC50 (HEPG2TOX_HILL_SLOPE 8.84, HEPG2TOX_R_SQUARED 0.75, PBLUC_HILL_SLOPE 7.32, PBLUC_R_SQUARED 0.521, read-out: LUCIFERASE INFECTION ASSAY - IC50): 6.44 µM"
Oc1c(Cl)cc(Cl)cc1/C=N/NC(=S)NC1CCCCC1,9.37 µM,"IC50 (HEPG2TOX_HILL_SLOPE 8.84, HEPG2TOX_R_SQUARED 0.571, PBLUC_HILL_SLOPE 15.3, PBLUC_R_SQUARED 0.312, read-out: LUCIFERASE INFECTION ASSAY - IC50): 8.11 µM"
CC(C)(C)NC(=S)N/N=C/c1cc([N+](=O)[O-])ccc1O,11.1 µM,"IC50 (HEPG2TOX_HILL_SLOPE 9.08, HEPG2TOX_R_SQUARED 0.437, PBLUC_HILL_SLOPE 15.5, PBLUC_R_SQUARED 0.332, read-out: LUCIFERASE INFECTION ASSAY - IC50): 9.61 µM"
CCc1cc[n+](CC(=O)Nc2cc3oc4ccccc4c3cc2OC)cc1,9.36 µM,"IC50 (HEPG2TOX_HILL_SLOPE 8.94, HEPG2TOX_R_SQUARED 0.562, PBLUC_HILL_SLOPE 18.1, PBLUC_R_SQUARED 0.422, read-out: LUCIFERASE INFECTION ASSAY - IC50): 8.29 µM"
COc1ccc(Nc2nccc3[nH]c(-c4ccsc4)cc23)cc1OC,7.38 µM,"IC50 (HEPG2TOX_HILL_SLOPE 8.96, HEPG2TOX_R_SQUARED 0.789, PBLUC_HILL_SLOPE 2.87, PBLUC_R_SQUARED 0.796, read-out: LUCIFERASE INFECTION ASSAY - IC50): 3.43 µM"
c1ccc2c(-n3ccnc3)nc(-c3ccsc3)nc2c1,7.73 µM,"IC50 (HEPG2TOX_HILL_SLOPE 9, HEPG2TOX_R_SQUARED 0.711, PBLUC_HILL_SLOPE 3.68, 14.1, PBLUC_R_SQUARED 0.615, 0.129, read-out: LUCIFERASE INFECTION ASSAY - IC50): 4.26 µM"
CCOC(=O)c1cc(C#N)c(Sc2nnc(SCC3CC3)s2)nc1C(F)(F)F,> 7.39 µM,"IC50 (HEPG2TOX_HILL_SLOPE 8.92, HEPG2TOX_R_SQUARED 0.488, read-out: LUCIFERASE INFECTION ASSAY - IC50): > 7.39 µM"
COc1ccc(CN2C(=O)N(C)C3(CCN(Cc4ccc(N5CCCC5)cc4)CC3)C2=O)cc1,> 7.13 µM,"IC50 (HEPG2TOX_HILL_SLOPE 9.02, HEPG2TOX_R_SQUARED 0.802, PBLUC_HILL_SLOPE 4.22, PBLUC_R_SQUARED 0.106, read-out: LUCIFERASE INFECTION ASSAY - IC50): 5.16 µM"
O=C(CSc1ncnc2sc(-c3ccccc3)cc12)NCc1ccc(F)cc1,> 10 µM,"IC50 (HEPG2TOX_HILL_SLOPE 9.03, HEPG2TOX_R_SQUARED 0.325, PBLUC_HILL_SLOPE 19.9, PBLUC_R_SQUARED 0.0271, read-out: LUCIFERASE INFECTION ASSAY - IC50): 9.7 µM"
CC(C)(C)c1nc2ccc(NC(=O)c3ccc(Cl)c(S(=O)(=O)NC4CC4)c3)cc2[nH]1,> 10 µM,"IC50 (HEPG2TOX_HILL_SLOPE 8.98, HEPG2TOX_R_SQUARED 0.824, PBLUC_HILL_SLOPE 3.11, PBLUC_R_SQUARED 0.121, read-out: LUCIFERASE INFECTION ASSAY - IC50): 7.36 µM"
CC(=O)Nc1ccc(-c2cnc3ccc(-c4cccc(F)c4)nn23)cc1,3.53 µM,"IC50 (HEPG2TOX_HILL_SLOPE 8.87, HEPG2TOX_R_SQUARED 0.791, PBLUC_HILL_SLOPE 12.1, PBLUC_R_SQUARED 0.742, read-out: LUCIFERASE INFECTION ASSAY - IC50): 2.95 µM"
Cc1ccc(N2C(=O)C=CC2=O)c(C)c1,6.84 µM,"IC50 (HEPG2TOX_HILL_SLOPE 8.83, HEPG2TOX_R_SQUARED 0.656, PBLUC_HILL_SLOPE 7.12, PBLUC_R_SQUARED 0.655, read-out: LUCIFERASE INFECTION ASSAY - IC50): 5.02 µM"
Clc1ccc(CN2CCN(c3ncnc4sccc34)CC2)s1,> 10 µM,"IC50 (HEPG2TOX_HILL_SLOPE 8.99, HEPG2TOX_R_SQUARED 0.725, PBLUC_HILL_SLOPE 4.78, PBLUC_R_SQUARED 0.254, read-out: LUCIFERASE INFECTION ASSAY - IC50): 8.3 µM"
